Data on 50 molecules can be found in the supplement of paper PMC9103864.

For assay [1], the system named is BMSC (primary human bone marrow mesenchymal stromal cells). Nature of the assay: absolute EC50 for viability; higher = less sensitive.
For assay [2] the test system is unchanged. Put plainly: drug sensitivity score (DSS); higher = more sensitive.

For `O=C(Nc1nc2cccc(-c3ccc(CN4CCS(=O)(=O)CC4)cc3)n2n1)C1CC1` [Filgotinib], the “absolute EC50 for viability” value in assay [1] was above 10 µM. In assay [2], this molecule showed a drug sensitivity score of 2.3.
For the molecule `CC(C)C[C@H](NC(=O)CNC(=O)c1cc(Cl)ccc1Cl)B(O)O` [Ixazomib], the “absolute EC50 for viability” value in assay [1] is above 1 µM. The molecule further gave a drug sensitivity score in assay [2] of 0.4.
Turning to `O=C(Nc1cccc(Nc2ncc(Br)c(NCCc3cnc[nH]3)n2)c1)N1CCCC1` [BX-912], the “absolute EC50 for viability” value in assay [1] is 2.17 µM. Also, the drug sensitivity score in assay [2] was 6.7.
For `Cc1cc(OCc2nnc(SC3CCCC3)n2-c2cccnc2)ccc1-c1ccc(S(C)(=O)=O)cc1` [NMS-873], in that order: 5.4 µM and 4.1.
The matching figures for `CCS(=O)(=O)N1CC(CC#N)(n2cc(-c3ncnc4[nH]ccc34)cn2)C1` [Baricitinib]: above 2.5 µM and 0.1.
For `CCN(c1cc(-c2ccc(CN3CCOCC3)cc2)cc(C(=O)NCc2c(C)cc(C)[nH]c2=O)c1C)C1CCOCC1` [Tazemetostat], in that order: above 10 µM and 0.
For `C[C@@H]1COC(Nc2ccc3ncnc(Nc4ccc(OCc5nccs5)c(Cl)c4)c3c2)=N1` [Varlitinib], the “absolute EC50 for viability” value in assay [1] was above 10 µM. The drug sensitivity score in assay [2] came to 0.4.
`Cc1sc2c(c1C)C(c1ccc(Cl)cc1)=N[C@@H](CC(=O)NCCCCNC(=O)COc1cccc3c1C(=O)N(C1CCC(=O)NC1=O)C3=O)c1nnc(C)n1-2` (stereo not given in full) [dBET1]: the “absolute EC50 for viability” value in assay [1] is 2.05 µM. In assay [2], the drug sensitivity score was found to be 8.2.
For `CC(C)C(=O)Nc1ccc([N+](=O)[O-])c(C(F)(F)F)c1` [Flutamide], in that order: above 10 µM and 0.
For `COc1cc(OC2CCN(C)CC2)ccc1Nc1ncc2c(n1)n(C1CCCC1)c(=O)n2C` [AZ 3146], in that order: above 10 µM and 2.9.
Take `FC(F)(F)c1ccc(CNc2ccc(Cc3c[nH]c4ncc(Cl)cc34)cn2)cn1` [Pexidartinib]: the “absolute EC50 for viability” value in assay [1] was above 10 µM. Besides, in assay [2], the drug sensitivity score stood at 3.6.
The matching figures for `COc1cc([C@@H]2c3cc4c(cc3[C@@H](O[C@@H]3O[C@@H]5CO[C@@H](c6cccs6)O[C@H]5[C@H](O)[C@H]3O)[C@H]3COC(=O)[C@H]23)OCO4)cc(OC)c1O` [Teniposide]: above 10 µM and 0.
For `COc1c(OCCCN2CCOCC2)ccc2c3n(c(=NC(=O)c4cnc(N)nc4)nc12)CCN3` [Copanlisib], in that order: 0.126 µM and 13.
The matching figures for `C=CC[C@@H]1/C=C(\C)C[C@H](C)C[C@H](OC)[C@H]2O[C@@](O)(C(=O)C(=O)N3CCCC[C@H]3C(=O)O[C@H](/C(C)=C/[C@@H]3CC[C@@H](O)[C@H](OC)C3)[C@H](C)[C@@H](O)CC1=O)[C@H](C)C[C@@H]2OC` [Tacrolimus]: above 10 µM and 1.8.
For `Nc1ncn([C@H]2C[C@H](O)[C@@H](CO)O2)c(=O)n1` [Decitabine], the “absolute EC50 for viability” value in assay [1] is above 10 µM. In assay [2], this molecule yielded a drug sensitivity score of 0.
For `O=C(/C=C\n1cnc(-c2cc(C(F)(F)F)cc(C(F)(F)F)c2)n1)NNc1cnccn1` [Selinexor], in that order: above 10 µM and 3.1.
The matching figures for `COCCOc1cnc2ccn([C@H](C)c3nnc4c(F)cc(-c5cnn(C)c5)cn34)c(=O)c2c1` [AMG-337]: 9.93 µM and 0.
The matching figures for `Clc1ccccc1C(c1ccccc1)(c1ccccc1)n1cccn1` [TRAM-34]: above 1 µM and 0.
Turning to `CNS(=O)(=O)Nc1nccc(Cc2c(C)c3ccc(Oc4ncccn4)cc3oc2=O)c1F`, the “absolute EC50 for viability” value in assay [1] was above 1 µM. This molecule displayed a drug sensitivity score in assay [2] of 0.
For `Nc1ncnc2c1nc(N)n2[C@@H]1O[C@H](CO)[C@@H](O)[C@H]1O` [8-amino-adenosine], in that order: 0.803 µM and 21.5.
For `NC1(c2ccc(-c3nc4ccn5c(=O)[nH]nc5c4cc3-c3ccccc3)cc2)CCC1` [MK-2206], in that order: above 1 µM and 5.8.
Turning to `CC(C)Nc1cc(-c2c[nH]c(C(=O)N[C@H](CO)c3cccc(Cl)c3)c2)c(Cl)cn1` [Ulixertinib], the “absolute EC50 for viability” value in assay [1] is above 10 µM. The drug sensitivity score in assay [2] came to 2.4.
Turning to `Cc1ccc(C(=O)Nc2ccc(Oc3cc4cnn(C)c4cc3-c3cn[nH]c3)c(F)c2)c(=O)n1-c1ccc(F)cc1` [Merestinib], in assay [1], the “absolute EC50 for viability” value was above 1 µM. Besides, the drug sensitivity score in assay [2] came out at 1.4.
Take `CN(C)CC#Cc1ccc(OCCCc2sc(N3CCc4cccc(C(=O)Nc5nc6ccccc6s5)c4C3)nc2C(=O)O)c(F)c1`: the “absolute EC50 for viability” value in assay [1] is above 10 µM. Further, the drug sensitivity score in assay [2] is 0.
The matching figures for `CC[C@@H]1[C@H](F)C(=O)N[C@@H]1COc1nccc2cc(C(N)=O)c(OC)cc12`: above 10 µM and 0.3.
For `C[C@@H](Oc1cc(-n2cnc3ccc(CN4CCN(C)CC4)cc32)sc1C(N)=O)c1ccccc1C(F)(F)F`, in that order: 1.89 µM and 8.
For `CCNC(=O)CCC/C=C\C[C@@H]1[C@@H](/C=C/[C@@H](O)CCc2ccccc2)[C@H](O)C[C@@H]1O` [Bimatoprost], in that order: above 5.5 µM and -0.9.
As to `Nc1ncnc2c1nc(Cl)n2[C@@H]1O[C@H](CO)[C@@H](O)[C@H]1O` [8-chloro-adenosine], the “absolute EC50 for viability” value in assay [1] was 5.35 µM. In assay [2], this molecule registered a drug sensitivity score of 10.9.
The matching figures for `O=C1NC(=O)[C@@H](c2cn3c4c(cccc24)CCC3)[C@@H]1c1c[nH]c2ccccc12` [Tivantinib]: above 1 µM and 0.
On to `N#CC1(c2ccc(NC(=O)c3cccnc3NCc3ccncc3)cc2)CCCC1` [Apatinib], for which the “absolute EC50 for viability” value in assay [1] was above 10 µM. This molecule also displayed a drug sensitivity score in assay [2] of 0.1.
For `CCCCOc1nc(N)c2c(n1)N(Cc1cccc(CN3CCCC3)c1)CC(=O)N2` [Vesatolimod], in that order: above 10 µM and 0.
The matching figures for `CNC(=O)c1cccc2cc(Oc3ccnc4cc(OCC5(N)CC5)c(OC)cc34)ccc12` [Lucitanib]: above 10 µM and 9.
The matching figures for `Nc1cccc2c1C(=O)N(C1CCC(=O)NC1=O)C2=O` (stereo not given) [Pomalidomide]: above 10 µM and 0.
Regarding `CC1=C2C[C@H]3[C@@H](CC[C@@H]4C[C@H](NS(C)(=O)=O)CC[C@@]43C)[C@@H]2CC[C@@]2(C1)O[C@@H]1C[C@H](C)CN[C@H]1[C@H]2C` [Saridegib], in assay [1], the “absolute EC50 for viability” value is above 10 µM. Also, in assay [2], the drug sensitivity score turned out to be 0.
On to `O=C(CCNC(=O)c1ccc(OC(F)(F)F)cc1)N[C@@H]1CCCc2ccccc21` [ML390], for which the “absolute EC50 for viability” value in assay [1] is above 50 µM. In assay [2], this molecule had a drug sensitivity score of 0.3.
The matching figures for `Cc1cnc(NC(=O)Nc2cc(Br)c(C)cc2OC[C@@H]2CNCCO2)cn1` [Rabusertib]: above 1 µM and 0.
For `CC[C@]1(O)C[C@H]2CN(CCc3c([nH]c4ccccc34)[C@@](C(=O)OC)(c3cc4c(cc3OC)N(C=O)[C@H]3[C@@](O)(C(=O)OC)[C@H](OC(C)=O)[C@]5(CC)C=CCN6CC[C@]43[C@@H]65)C2)C1` [Vincristine], in that order: above 1 µM and 3.4.
The matching figures for `CCCCCCCCc1ccc(CCC(N)(CO)CO)cc1` [Fingolimod]: 3.02 µM and 5.8.
As for `CO[C@H]1CC[C@H](N2C(=O)CNc3ncc(-c4ccc(C(C)(C)O)nc4)nc32)CC1` [CC-223], the “absolute EC50 for viability” value in assay [1] was determined as 6.04 µM. This molecule came in with a drug sensitivity score in assay [2] of 4.4.
The matching figures for `O=C(NC[C@H](O)CN1CCc2ccccc2C1)c1cc(NC2COC2)ncn1`: above 10 µM and 0.
For `S=C(NCc1ccc2c(c1)OCO2)N1CCN(c2ncnc3c2oc2ccccc23)CC1` [Amuvatinib], in that order: above 10 µM and 0.
The matching figures for `Cc1c(Cn2c(C)nc3c(C(=O)O)cc(N4CCOCC4)cc32)cccc1C(F)(F)F`: above 10 µM and 0.
`C[C@@H](Nc1cc(F)cc(F)c1)c1cc(C(=O)N(C)C)cc2c(=O)cc(N3CCOCC3)oc12` [AZD-8186]: the “absolute EC50 for viability” value in assay [1] is above 1 µM. Besides, the drug sensitivity score in assay [2] is 3.9.
The matching figures for `O=C(/C=C/c1cccc(S(=O)(=O)Nc2ccccc2)c1)NO` [Belinostat]: 2.23 µM and 7.2.
The matching figures for `NC(=O)NO` [Hydroxyurea]: above 1000 µM and -2.9.
The matching figures for `CC(C)(C)c1cc(NC(=O)Nc2ccc(-c3cn4c(n3)sc3cc(OCCN5CCOCC5)ccc34)cc2)no1` [Quizartinib]: above 1 µM and 2.2.
Take `CCC(C)(C)C(=O)O[C@H]1C[C@@H](C)C=C2C=C[C@H](C)[C@H](CC[C@@H]3C[C@@H](O)CC(=O)O3)[C@H]21` [Simvastatin]: the “absolute EC50 for viability” value in assay [1] is above 10 µM. The drug sensitivity score in assay [2] stood at 2.4.
Turning to `C[C@@H](Oc1ccc2[nH]nc(/C=C/c3cnn(CCO)c3)c2c1)c1c(Cl)cncc1Cl`, the “absolute EC50 for viability” value in assay [1] was above 1 µM. In assay [2], the drug sensitivity score was 3.6.
The matching figures for `COc1cc2ncnc(Nc3cccc(Cl)c3F)c2cc1OC(=O)N1CCN(C)C[C@H]1C` [AZD3759]: above 1 µM and 0.
Take `O=C(c1ccc(OCCN2CCCCC2)cc1)c1c(-c2ccc(O)cc2)sc2cc(O)ccc12` [Raloxifene]: in assay [1], the “absolute EC50 for viability” value was 7.96 µM. The molecule also yielded a drug sensitivity score in assay [2] of 2.6.
